Patent publication US20250360099A2, “A significantly non-toxic novel Cobalt(III) Schiff base complex induces apoptosis via G2-M cell cycle arrest in human breast cancer cell line MCF-7 and cell cycle arrest of colon cancer cell lines HCT-116 and SW- 480 via G0-G1” (CHITTARANJAN NATIONAL CANCER INSTITUTE, priority 2023, published 2025)
Read-outs that look alike come from different tables or passages of the source.

Columns and labels:
[1] = tested on: HCT-116; test: CFSE cell proliferation, HCT-116; assay type: cell-based, human; conditions: respective IC50 dose, 24 h
[2] = tested on: Human colon cancer cell line HCT-116; test: XTT assay, cytotoxicity on HCT-116; assay type: cell-based; conditions: 24 h
Description: (§1) Colon cancer cell lines and culture condition: Human colon cancer cell lines HCT-116 and SW-480 were purchased from NCCS, Pune. The carcinoma cell line (HCT-116) is wild-type for TP53 and adenocarcinoma cell line (SW480) is a double-mutant for TP53 gene.

[3] = tested on: human breast cancer cell line MCF-7; test: MTT assay, cytotoxicity on breast cancer cells
Experimental: Breast cancer cell line and culture condition: Cells were cultured in a humidified air-jacked CO2 incubator (Thermo scientific, Heracellvios 160i). […] Human breast cancer cells lines MCF-7, were purchased from NCCS, Pune. […] The cells were cultured as monolayers in RPMI-1640 supplemented with 10% heat-inactivated fetal bovine serum (FBS), 1% penicillin-streptomycin, and 1% antibiotic-antimycotics and 1% non-essential amino acids at 37° C. in a fully humidified air-jacketed incubator of 5% CO2 and 95% air. All the experiments were performed from exponentially growing passage of 15 or less with 80% cell confluency and then sub-cultured to a fresh media to keep cells healthy and actively growing.
The MTT assay is a quantitative, sensitive, and reliable colorimetric assay that mainly measures cell viability and proliferation. […] The cells viability was estimated spectrophotometrically by measuring absorbance at 570 nm using an ELISA plate reader. To calculate the cell viability percentage, the average absorbance of each treatment group was acquired and normalized based on the untreated control. The half inhibitory concentration (IC50 value) was calculated by putting the experimental data with the dose-response model (Prism 6, Version 6.0b, GraphPad Software).

[4] = tested on: MCF-7 cells; test: FACS-based Annexin V-FITC/PI dual staining assay; assay type: cell-based, human; conditions: IC50 dose, 24 h
Experimental: FACS-based Annexin V-FITC/PI dual staining assay: MCF-7 cells were seeded in 6-well plate at 1×10^5 cells per well and treated with an IC50 dose of complex 1 and oxaliplatin for 24 h, after which they were harvested by trypsinization and processed into cell suspensions (10^6 cells were taken from each group). Cells were centrifuged at 800 g before being re-suspended in a dye mix that included 250 μL Annexin V-FITC binding buffer, 1 μL PI solution, and 3 μL Annexin V-FITC solution as per assay kit protocol. For 15 minutes, the cell suspension was kept in dark. The BD FACS Verse was used to detect the intensities of red and green fluorescence, and Flowjo software (version 10) was used to assess the apoptotic rates of treated cells. Ten thousand events were collected to determine the population percentage. All experiments were repeated three times, and the results were presented as mean±SD.

[5] = tested on: MCF-7 cells; test: CFSE cell proliferation assay (FACS); assay type: cell-based, human; conditions: IC50 dose, 24 h
Experimental: (§2) Cell proliferation and cycle study using FACS: To detect cell proliferation, CFSE dye was used. At first, MCF-7 cells were stained with 5 μM of CFSE dye for 15 min at 37° C. followed by the addition of FBS containing RPMI 1640 medium to end the reaction. Then CFSE-stained cells were cultured with both oxaliplatin and complex 1 for 24 h in 35-mm plates. One set of stained untreated cells was seeded only in complete media without any compound. For inhibition of proliferation, cells were grown in a serum-free medium (starvation) for 24 h as a positive control. On the next day, the green fluorescence intensity of CFSE within each cell was measured by flow cytometry, and data were calculated using Flowjo software (version 10). For cell cycle study, MCF-7 cells were seeded at 1×10^5 cells per well in a 6-well plate, treated with an IC50 dose of complex 1 and oxaliplatin for 24 h, then digested by trypsinization and made into cell suspension (10^6 cells were harvested from each group) in 2% FBS containing 1×PBS, followed by fixation in 70% ethanol overnight at 4° C. After that cells were centrifuged at 850×g in a low-temperature centrifuge for 5 min. […] BD FACS flow cytometer was used to assess the difference in cell cycle phase distribution of nuclear DNA, which was then analyzed using Flowjo software (version 10). […]

[6] = tested on: SW-480; test: Annexin V-FITC/PI-PE dual staining, SW-480; assay type: cell-based, human; conditions: respective IC50 dose, 24 h
[7] = tested on: SW-480; test: Cell cycle distribution (PI), SW-480; assay type: cell-based, human; conditions: 24 h
[8] = tested on: Human colon cancer cell line SW-480; test: XTT assay, cytotoxicity on SW-480; assay type: cell-based; conditions: 24 h
Description: as §1

[9] = tested on: HCT-116; test: Cell cycle distribution (PI), HCT-116; assay type: cell-based, human; conditions: 24 h
[10] = tested on: SW-480; test: CFSE cell proliferation, SW-480; assay type: cell-based, human; conditions: respective IC50 dose, 24 h
[11] = tested on: HCT-116; test: Annexin V-FITC/PI-PE dual staining, HCT-116; assay type: cell-based, human; conditions: respective IC50 dose, 24 h
[12] = tested on: HCT-116 cells; test: TUNEL staining, fluorescence microscopy; assay type: cell-based, human; conditions: 24 h
[13] = tested on: HCT-116; test: Wound healing (scratch) assay, HCT-116; assay type: cell-based, human; conditions: IC50 dose, 12-48 h
[14] = tested on: MCF-7 cells; test: Cell cycle study by flow cytometry after PI staining; assay type: cell-based, human; conditions: IC50 concentration, 24 h; untreated 8.88%
Experimental: as §2

[15] = tested on: SW-480; test: Wound healing (scratch) assay, SW-480; assay type: cell-based, human; conditions: IC50 dose, 12-48 h
[16] = tested on: HCT-116; test: MTT study with OCT3 inhibitor, HCT-116; assay type: cell-based, human; conditions: at the respective doses of inhibitor
[17] = tested on: SW-480; test: MTT study with OCT3 inhibitor, SW-480; assay type: cell-based, human; conditions: at the respective doses of inhibitor

SMILES | cell proliferation, HCT-116 [1] | IC50 [2] [µM] | IC50 ([3]; read-out: IC50, cytotoxicity on MCF-7 cells, 24 h, mean±SD) [µM] | IC50 ([3]; read-out: IC50, cytotoxicity on MCF-7 cells, 48 h, mean±SD) [µM] | late apoptotic (Annexin V+/PI+) population ([4]; untreated 2.87%) [%] | early apoptotic population (Annexin V+/PI−) ([4]; untreated 4.96%) [%] | CFSE staining intensity vs untreated controls [5] | number of apoptotic cells vs untreated, SW-480 [6] | cell cycle distribution, SW-480 [7] | IC50 [8] [µM] | cell cycle distribution, HCT-116 [9] | cell proliferation, SW-480 [10] | number of apoptotic cells vs untreated, HCT-116 [11] | TUNEL-positive cells vs untreated control [12] | migration of cells vs untreated, HCT-116 [13] | population of cells in the G2-M phase [14] [%] | migration of cells vs untreated, SW-480 [15] | toxicity of the inhibitor itself, HCT-116 [16] | toxicity of the inhibitor itself, SW-480 [17]
O=C1[O][Pt]2([NH][C@@H]3CCCC[C@H]3[NH]2)[O]C1=O [oxaliplatin, reference compound] | suppressed the cell proliferation | 16.7 ± 1.78 | 31.4 ± 0.69 | 15.1 ± 1.81 | 23.9 | 9.58 | significantly higher | elevated the number of apoptotic cells | cell cycle arrest at G0-G1 phase | 7.87 ± 1.54 | cell cycle arrest at G0-G1 phase | suppressed the cell proliferation | elevated the number of apoptotic cells | increased number of TUNEL-positive cells | reduced the migration of cells | 21.3 | reduced the migration of cells |  | 
CCN1/C(=C/c2ccc3ccccc3[n+]2CC)C=Cc2ccccc21.[I-] [Dycenium-22] |  |  |  |  |  |  |  |  |  |  |  |  |  |  |  |  |  | non-toxic | non-toxic
